The source of these data is US20080207641A1 (Synta Pharmaceuticals Corp., priority 2006, published 2008).

The test system of one data set is IL-2 production. The data set is described as follows: Inhibition of IL-2 production in PHA-activated Jurkat cells (ELISA). The format is cell-based. The conditions noted are these: Homo sapiens, 20 h, PHA 2.5 μg/mL, 20 hours at 37° C., IL-2 ELISA. The method, then:
Jurkat cells were placed in a 96 well plate (0.5 million cells per well in 1% FBS medium) then a test compound of this invention was added at different concentrations. After 10 minutes, the cells were activated with PHA (final concentration 2.5 μg/mL) and incubated for 20 hours at 37° C. under CO2. The final volume was 200 μL. Following incubation, the cells were centrifuged and the supernatants collected and stored at −70° C. prior to assaying for IL-2 production. A commercial ELISA kit (IL-2 Eli-pair, Diaclone Research, Besancon, France) was used to detect production of IL-2, from which dose response curves were obtained. The IC50 value was calculated as the concentration at which 50% of maximum IL-2 production after stimulation was inhibited versus a non-stimulation control.
A general note: In an ELISA, binding on a coated surface is turned into a signal by an enzyme label.

Data set [1] can be described thus: Solubility in simulated gastric fluids. The format is physicochemical. From the text:
Solubility in Simulated Gastric Fluids

In brackets after ≈: the same amount, converted by molar mass. Read-outs that look alike come from different tables or passages of the source.

The IC50 is the concentration that inhibits the measured activity by half. Higher therefore signals weaker potency in that assay. In the case of `Cc1cncnc1C(=O)Nc1ccc(C2=C(C=O)CCN(c3nccs3)C2)cc1` [Compound 1, N-(4-(4-formyl-1-(thiazol-2-yl)-1,2,5,6-tetrahydropyridin-3-yl)phenyl)-5-methylpyrimidine-4-carboxamide], in the data set on IL-2 production, the IC50 lay within 75 to 150 nM.

A word on the solubility: it is how much of the substance goes into solution per volume. Read a low solubility as a poorly soluble substance. `CC1=C(c2cnc(NC(=O)c3c(F)cccc3F)cn2)CN(c2nnn(C)n2)CC1` [Compound 2, 2,6-difluoro-N-(5-(4-methyl-1-(2-methyl-2H-tetrazol-5-yl)-1,2,5,6-tetrahydropyridin-3-yl)pyrazin-2-yl)benzamide] gave a solubility in data set [1] (simulated gastric fluid) of 50 µM (≈ 20.6 µg/mL). This compound displayed an IC50 in the data set on IL-2 production of 35 to 75 nM. `CC1=C(c2cnc(NC(=O)c3c(F)cccc3F)cn2)CN(c2nnnn2C)CC1` [Compound 3, 2,6-difluoro-N-(5-(4-methyl-1-(1-methyl-1H-tetrazol-5-yl)-1,2,5,6-tetrahydropyridin-3-yl)pyrazin-2-yl)benzamide] returned an IC50 in the data set on IL-2 production of more than 1000 nM.

With `CC1=C(c2cnc(NC(=O)c3ccncc3F)cn2)CN(c2nccs2)CC1` [Compound 4, 3-fluoro-N-(5-(4-methyl-1-(thiazol-2-yl)-1,2,5,6-tetrahydropyridin-3-yl)pyrazin-2-yl)isonicotinamide], the solubility in data set [1] (simulated gastric fluid) was 50 µM (≈ 19.8 µg/mL). In addition, the IC50 in the data set on IL-2 production is not above 35 nM. In the case of `CC1=C(c2ccc(NCc3c(F)cccc3F)cc2)CN(c2nccs2)CC1` [Compound 5, N-(2,6-difluorobenzyl)-4-(4-methyl-1-(thiazol-2-yl)-1,2,5,6-tetrahydropyridin-3-yl)aniline], the concentration in solution in data set [1] (simulated gastric fluid) (solubility) was 50 µM (≈ 19.9 µg/mL). Moreover, the IC50 in the data set with IL-2 production is not above 35 nM.

Consider `CC1=C(c2ccc(NC(=O)c3c(F)cccc3F)nc2)CN(c2nnn(C)n2)CC1` [Compound 6, 2,6-difluoro-N-(5-(4-methyl-1-(2-methyl-2H-tetrazol-5-yl)-1,2,5,6-tetrahydropyridin-3-yl)pyridin-2-yl)benzamide], for which the solubility in data set [1] (simulated gastric fluid) was 50 µM (≈ 20.6 µg/mL). In the data set on IL-2 production, the 50% inhibitory concentration (IC50) was not above 35 nM.

Turning to `CC1=C(c2ccc(NCc3c(F)cccc3F)nc2)CN(c2nccs2)CC1.Cl.Cl` [Compound 7, N-(2,6-difluorobenzyl)-5-(4-methyl-1-(thiazol-2-yl)-1,2,5,6-tetrahydropyridin-3-yl)pyridin-2-amine dihydrochloride], in data set [1] (simulated gastric fluid), the solubility is 100 µM. Also, in the data set on IL-2 production, the IC50 was in the range of 35 to 75 nM. In the data set with IL-2 production, `CC1=C(c2ccc(NC(=O)c3c(F)cccc3C(F)(F)F)cc2)CN(c2nccs2)CC1` [Compound 8, 2-fluoro-N-(4-(4-methyl-1-(thiazol-2-yl)-1,2,5,6-tetrahydropyridin-3-yl)phenyl)-6-(trifluoromethyl)benzamide] returned an IC50 of 75 to 150 nM. Take `CC1=C(c2ccc(NC(=O)c3ccccc3C(F)(F)F)cc2)CN(c2nccs2)CC1` [Compound 9, N-(4-(4-methyl-1-(thiazol-2-yl)-1,2,5,6-tetrahydropyridin-3-yl)phenyl)-2-(trifluoromethyl)benzamide]: the IC50 with IL-2 production fell in the range of 35 to 75 nM. As for `CC1=C(c2ccc(NC(=O)c3c(Cl)cccc3Cl)cc2)CN(c2nccs2)CC1` [Compound 10, 2,6-dichloro-N-(4-(4-methyl-1-(thiazol-2-yl)-1,2,5,6-tetrahydropyridin-3-yl)phenyl)benzamide], in data set [1] (simulated gastric fluid), the solubility is 50 µM (≈ 22.2 µg/mL). The compound further displayed an IC50 in the data set with IL-2 production of 75 to 150 nM.

`CC1=C(c2ccc(NC(=O)c3c(F)cccc3F)cn2)CN(c2nccs2)CC1` [Compound 11, 2,6-difluoro-N-(6-(4-methyl-1-(thiazol-2-yl)-1,2,5,6-tetrahydropyridin-3-yl)pyridin-3-yl)benzamide]: the concentration in solution in data set [1] (simulated gastric fluid) (solubility) came to 100 µM (≈ 41.2 µg/mL). The compound further registered an IC50 in the data set on IL-2 production of 75 to 150 nM. On to `CC1=C(c2ccc(NC(=O)c3ccccc3F)cc2)CN(c2nccs2)CC1` [Compound 12, 2-fluoro-N-(4-(4-methyl-1-(thiazol-2-yl)-1,2,5,6-tetrahydropyridin-3-yl)phenyl)benzamide], for which the solubility in data set [1] (simulated gastric fluid) was 50 µM (≈ 19.7 µg/mL). Besides, the IC50 with IL-2 production is not above 35 nM.

In turn, `CC1=C(c2ccc(NC(=O)c3c(O)cccc3F)cc2)CN(c2nccs2)CC1` [Compound 13, 2-fluoro-6-hydroxy-N-(4-(4-methyl-1-(thiazol-2-yl)-1,2,5,6-tetrahydropyridin-3-yl)phenyl)benzamide] displayed a solubility in data set [1] (simulated gastric fluid) of 50 µM (≈ 20.5 µg/mL). Moreover, the IC50 with IL-2 production lay in the range of 150 to 1000 nM. With `CSc1ncccc1C(=O)Nc1ccc(C2=C(C)CCN(c3nccs3)C2)cc1` [Compound 14, N-(4-(4-methyl-1-(thiazol-2-yl)-1,2,5,6-tetrahydropyridin-3-yl)phenyl)-2-(methylthio)nicotinamide], the IC50 with IL-2 production was in the range of 150 to 1000 nM. In turn, `CCC(Cl)C(=O)Nc1ccc(C2=C(C)CCN(c3nccs3)C2)cc1` (stereo not shown) [Compound 15, 2-chloro-N-(4-(4-methyl-1-(thiazol-2-yl)-1,2,5,6-tetrahydropyridin-3-yl)phenyl)butanamide] returned a solubility in data set [1] of 150 µM (≈ 56.4 µg/mL). Besides, the IC50 in the data set on IL-2 production was not above 35 nM.

In the case of `CC1=C(c2ccc(NC(=O)c3ccc(F)cc3F)cc2)CN(c2nccs2)CC1` [Compound 16, 2,4-difluoro-N-(4-(4-methyl-1-(thiazol-2-yl)-1,2,5,6-tetrahydropyridin-3-yl)phenyl)benzamide], in data set [1], the solubility was 150 µM (≈ 61.7 µg/mL). This compound also returned an IC50 in the data set on IL-2 production not above 35 nM.

With `CC1=C(c2ccc(NC(=O)C3c4ccccc4-c4ccccc43)cc2)CN(c2nccs2)CC1` [Compound 17, N-(4-(4-methyl-1-(thiazol-2-yl)-1,2,5,6-tetrahydropyridin-3-yl)phenyl)-9H-fluorene-9-carboxamide], the IC50 with IL-2 production is 150 to 1000 nM. For the compound `O=C(Nc1ccc(-c2cc(-c3nccs3)ccc2Cl)cc1)c1c(O)cccc1F` [Compound 18, N-(2′-chloro-5′-(thiazol-2-yl)biphenyl-4-yl)-2-fluoro-6-hydroxybenzamide], in the data set on IL-2 production, the IC50 was 75 to 150 nM. The compound `CC1=C(c2ccc(NC(=O)c3ccc(F)cc3F)cc2)CN(c2nccs2)CC1.Cl` [Compound 19, 2,4-difluoro-N-(4-(4-methyl-1-(thiazol-2-yl)-1,2,5,6-tetrahydropyridin-3-yl)phenyl)benzamide hydrochloride] registered a solubility in data set [1] of 150 µM. Turning to `CC1=C(c2cnc(NC(=O)c3c(F)cccc3Cl)cn2)CN(c2nccs2)CC1` [Compound 20, 2-chloro-6-fluoro-N-(5-(4-methyl-1-(thiazol-2-yl)-1,2,5,6-tetrahydropyridin-3-yl)pyrazin-2-yl)benzamide], the solubility in data set [1] is recorded as 150 µM (≈ 64.5 µg/mL). Besides, in the data set on IL-2 production, the IC50 is not above 35 nM. As for `CC1=C(c2ccc(NC(=O)c3ccc(F)cc3F)nc2)CN(c2nnn(C)n2)CC1` [Compound 21, 2,4-difluoro-N-(5-(4-methyl-1-(2-methyl-2H-tetrazol-5-yl)-1,2,5,6-tetrahydropyridin-3-yl)pyridin-2-yl)benzamide], in data set [1], the solubility is reported as 150 µM (≈ 61.7 µg/mL). On to `CC1=C(c2ccc(NC(=O)c3c(F)cccc3F)nc2)CN(c2nccn2C)CC1` [Compound 22, 2,6-difluoro-N-(5-(4-methyl-1-(1-methyl-1H-imidazol-2-yl)-1,2,5,6-tetrahydropyridin-3-yl)pyridin-2-yl)benzamide], for which the IC50 in the data set on IL-2 production is more than 1000 nM. In data set [1] (simulated gastric fluid), `CC1=C(c2ccc(NC(=O)c3c(F)cccc3Cl)nc2)CN(c2nnn(C)n2)CC1` [Compound 23, 2-chloro-6-fluoro-N-(5-(4-methyl-1-(2-methyl-2H-tetrazol-5-yl)-1,2,5,6-tetrahydropyridin-3-yl)pyridin-2-yl)benzamide] returned a solubility of 25 µM (≈ 10.7 µg/mL). In addition, the IC50 in the data set with IL-2 production was more than 1000 nM.

For `CC1=C(c2cnc(NC(=O)c3ccc(F)cc3F)cn2)CN(c2nnn(C)n2)CC1` [Compound 24, 2,4-difluoro-N-(5-(4-methyl-1-(2-methyl-2H-tetrazol-5-yl)-1,2,5,6-tetrahydropyridin-3-yl)pyrazin-2-yl)benzamide], the solubility in data set [1] (simulated gastric fluid) is 50 µM (≈ 20.6 µg/mL). In the data set on IL-2 production, this compound displayed an IC50 of 75 to 150 nM.

For `Cn1nnc(N2CCC(Cl)=C(c3ccc(NC(=O)c4c(F)cccc4F)nc3)C2)n1` [Compound 25, N-(5-(4-chloro-1-(2-methyl-2H-tetrazol-5-yl)-1,2,5,6-tetrahydropyridin-3-yl)pyridin-2-yl)-2,6-difluorobenzamide], the solubility in data set [1] (simulated gastric fluid) is 50 µM (≈ 21.6 µg/mL). In the data set on IL-2 production, this compound had an IC50 not above 35 nM. For `O=C(Nc1ccc(C2=C(Cl)CCN(c3nccs3)C2)cn1)c1c(F)cccc1F` [Compound 26, N-(5-(4-chloro-1-(thiazol-2-yl)-1,2,5,6-tetrahydropyridin-3-yl)pyridin-2-yl)-2,6-difluorobenzamide], the concentration in solution in data set [1] (simulated gastric fluid) (solubility) was 100 µM (≈ 43.3 µg/mL). Moreover, the IC50 in the data set with IL-2 production is not above 35 nM. In data set [1] (simulated gastric fluid), `O=C(Nc1ccc(C2=C(Cl)CCN(c3nccs3)C2)cn1)c1ccc(F)cc1F` [Compound 27] showed a solubility of 50 µM (≈ 21.6 µg/mL). The same compound showed an IC50 in the data set with IL-2 production of 75 to 150 nM.

In data set [1] (simulated gastric fluid), `CC(C)=CC(=O)Nc1ccc(C2=C(C)CCN(c3nnn(C)n3)C2)cn1` [Compound 28, 3-methyl-N-(5-(4-methyl-1-(2-methyl-2H-tetrazol-5-yl)-1,2,5,6-tetrahydropyridin-3-yl)pyridin-2-yl)but-2-enamide] yielded a solubility of 50 µM (≈ 17.7 µg/mL).

In turn, `CC1=C(c2ccc(NC(=O)c3ccccc3F)nc2)CN(c2nnn(C)n2)CC1` [Compound 29, 2-fluoro-N-(5-(4-methyl-1-(2-methyl-2H-tetrazol-5-yl)-1,2,5,6-tetrahydropyridin-3-yl)pyridin-2-yl)benzamide] returned a solubility in data set [1] (simulated gastric fluid) of 50 µM (≈ 19.7 µg/mL). This compound also registered an IC50 in the data set on IL-2 production of 35 to 75 nM. In turn, `CC1=C(c2cnc(NC(=O)c3c(F)cncc3F)cn2)CN(c2nccs2)CC1.Cl` [Compound 34, 3,5-difluoro-N-(5-(4-methyl-1-(thiazol-2-yl)-1,2,5,6-tetrahydropyridin-3-yl)pyrazin-2-yl)isonicotinamide hydrochloride] registered a solubility in data set [1] (simulated gastric fluid) of 25 µM. Consider `CC1=C(c2cnc(NC(=O)c3c(F)cccc3Cl)cn2)CN(c2nnn(C)n2)CC1` [Compound 35, 2-chloro-6-fluoro-N-(5-(4-methyl-1-(2-methyl-2H-tetrazol-5-yl)-1,2,5,6-tetrahydropyridin-3-yl)pyrazin-2-yl)benzamide], for which the solubility in data set [1] (simulated gastric fluid) was 25 µM (≈ 10.7 µg/mL).
